According to paper PMC6801405, “Discovery of 3-Arylquinoxaline Derivatives as Potential Anti-Dengue Virus Agents” (International Journal of Molecular Sciences, 2019):
Where two headings read alike, the source gives them in different places.

Key:
DENV2 = test: microbe, parasite or virus in culture; format: cell-based, dengue virus; conditions: for SI (selectivity index, CC50/EC50): CC50 Huh-7 / EC50 DENV; for inhibition at 1 µM / inhibition at 10 µM / EC50: Dengue virus; for inhibition at 1 µM / inhibition at 10 µM: DENV2, 72 h; for inhibition at 1 µM / inhibition at 10 µM / DENV2 % Inhibition at 10 μM: Huh-7-DV-Fluc cells, three days; for inhibition at 10 µM / anti-DENV activity in words / DENV2 % Inhibition at 10 μM: 10 μM; for anti-DENV activity in words: >32% inhibition of DENV-2 at 10 μM considered as active
Experimental: Anti-DENV activities were determined by firefly luciferase activity.
Huh-7-DV-Fluc cells were seeded in 24-well plates at a density of 2 × 10^4 cells per well, and treated with the 3-arylquinoxaline compounds at two concentrations (1 and 10 μM) or 0.1% DMSO as control. After three days of incubation, the luciferase activity assay was performed using the Bright-Glo Luciferase assay system (Promega, Madison, WI, USA) according to the manufacturer’s instructions.

[1] = Cytotoxicity assay (XTT method); format: cell-based, Human; conditions: human, mean ± SD; for viability at 72 h, 20 µM / viability at 72 h, 200 µM: Huh-7 cells, XTT; for viability at 72 h, 20 µM: read-out: Huh-7 Cell % viability at 20 μM; for viability at 72 h, 200 µM: read-out: Huh-7 Cell % viability at 200 μM; for CC50 at 72 h: uninfected Huh-7 cells, read-out: CC50 (concentration causing a 50% growth inhibition of uninfected Huh-7 cells)
Experimental: For cytotoxicity tests, run in parallel with antiviral assays, plates at an initial density of 5 × 10^3 cells/well were treated with or without serial dilutions of test compounds. Cell viability was determined after 72 h at 37 °C in a humidified CO2 (5%) atmosphere by the (2,3-bis[2-methyloxy-4-nitro-5-sulfophenyl]-2H-tetrazolium-5-carboxanilide) (XTT) method.

Structure (SMILES) | SI (selectivity index, CC50/EC50) (DENV2) | inhibition at 1 µM (DENV2; mean ± SD) [%] | inhibition at 10 µM (DENV2; mean ± SD) [%] | EC50 (DENV2; DENV2, DENV replication, mean ± SD, read-out: EC50 (concentration resulting in a 50% inhibition in virus production)) [µM] | viability at 72 h, 20 µM [1] [%] | viability at 72 h, 200 µM [1] [%] | CC50 at 72 h [1] [µM] | anti-DENV activity in words (DENV2) | DENV2 % Inhibition at 10 μM (DENV2; mean ± SD) [%] | melting point [°C] | EC50 (DENV2; DENV2, read-out: EC50 (concentration resulting in a 50% inhibition in virus production)) [µM]
COc1ccc(-c2cc3ccccc3nc2C(O)c2ccccc2)cc1 (centres unmarked) [Compound 3, 2-(hydroxyphenylmethyl)-3-(4-methoxyphenyl)quinoline, reference compound] | 11.07 | 12.4 ± 2.67 | 50.1 ± 3.47 | 12.6 ± 2.16 | 90.3 ± 2.62 | 21.9 ± 3.55 | 139 ± 2.32 | – | – | – | –
COc1ccc(C(O)c2nc3ccccc3nc2-c2ccccc2)cc1 (centres unmarked) [Compound 15b, (4-Methoxyphenyl)(3-phenylquinoxalin-2-yl)methanol] | – | 24.3 ± 2.51 | 48 | – | 103 ± 1.79 | 61.4 ± 2.67 | – | moderately active | 48.67 ± 4.71 | 166 to 168.6 | –
COc1ccc(C(=O)c2nc3cc(Cl)c(Cl)cc3nc2-c2ccccc2)cc1 [Compound 22b, (6,7-Dichloro-3-phenylquinoxalin-2-yl)(4-methoxyphenyl)methanone] | – | 5.19 ± 2.78 | 24.7 ± 1.89 | – | 103 ± 8.3 | 92 ± 3.08 | – | – | – | 171.9 to 172.3 | –
O=C(c1ccc(O)cc1)c1nc2ccccc2nc1-c1ccc(O)cc1 [Compound 29, (4-Hydroxyphenyl)(3-(4-hydroxyphenyl)quinoxalin-2-yl)methanone] | – | 2.36 ± 1.11 | 4.25 ± 1.39 | – | 104 ± 2.91 | 51.9 ± 1.62 | – | – | – | – | –
O=C(c1ccccc1)c1nc2ccccc2nc1-c1ccc(F)cc1 [Compound 23a, [3-(4-Fluorophenyl)quinoxalin-2-yl](phenyl)methanone] | – | 34.2 ± 5.12 | 40.8 ± 2.58 | – | 98.6 ± 5.68 | 87.6 ± 5.75 | – | – | – | 94.1 to 96.6 | –
COc1ccc(C(=O)c2nc3ccccc3nc2-c2ccc(OC)cc2)cc1 [Compound 25b, (4-Methoxyphenyl)[3-(4-methoxyphenyl)quinoxalin-2-yl]methanone] | – | 41.5 ± 3.25 | 49.7 ± 4.38 | – | 107 ± 3.03 | 99.4 ± 2.14 | – | – | – | 144.5 to 146.2 | –
OC(c1ccccc1)c1nc2ccccc2nc1-c1ccc(F)cc1 (centres unmarked) [Compound 17a, [3-(4-Fluorophenyl)quinoxalin-2-yl](phenyl)methanol] | – | 2.58 ± 0.85 | 4.78 ± 1.93 | – | 96.3 ± 3.52 | 73.3 ± 6.57 | – | – | – | 157.4 to 158 | –
COc1ccc(-c2nc3ccccc3nc2C(=O)c2ccccc2)cc1 [Compound 25a, [3-(4-Methoxyphenyl)quinoxalin-2-yl](phenyl)methanone] | – | 40.4 ± 2.22 | 47.5 ± 3.51 | – | 101 ± 2.39 | 100 ± 4.59 | – | – | – | 93.9 to 98.2 | –
OC(c1ccccc1)c1nc2ccccc2nc1-c1ccccc1 (centres unmarked) [Compound 15a, Phenyl(3-phenylquinoxalin-2-yl)methanol] | – | 2.13 ± 1.12 | 5.31 ± 1.73 | – | 105 ± 5.66 | 59.9 ± 8.33 | – | inactive | – | 146 to 147 | –
COc1ccc(-c2nc3cc(Cl)c(Cl)cc3nc2C(O)c2ccccc2)cc1 (centres unmarked) [Compound 20a, [6,7-Dichloro-3-(4-methoxyphenyl)quinoxalin-2-yl](phenyl)methanol] | >35.21 | 16.3 ± 3.42 | > 50 | – | 99.4 ± 3.31 | 27.1 ± 1.24 | > 200 | – | 58.71 ± 2.86 | 156.8 to 157.1 | 5.68 ± 0.81
COc1ccc(C(=O)c2nc3ccccc3nc2-c2ccc(F)cc2)cc1 [Compound 23b, [3-(4-Fluorophenyl)quinoxalin-2-yl](4-methoxyphenyl)methanone] | – | 16.4 ± 3.11 | 33.6 ± 4.21 | – | 104 ± 1.85 | 103.3 ± 1.03 | – | – | – | 147.6 to 147.9 | –
COc1ccc(-c2nc3ccccc3nc2C(O)c2ccc(OC)cc2)cc1 (centres unmarked) [Compound 19b, (4-Methoxyphenyl)[3-(4-methoxyphenyl)quinoxalin-2-yl]methanol] | – | 35.5 ± 4.82 | 47.7 ± 5.41 | – | 96.4 ± 1.24 | 21.3 ± 1.55 | – | – | – | 132.4 to 136 | –
